This note sets out measurements from the NIST ThermoML archive (doi:10.1021/acs.jced.8b00170).

Numbers after ± are expanded uncertainties.

Data set [1] can be described thus: Molar enthalpy of transition or fusion. Conditions: Crystal; DSC.
For data set [2] the following is noted: Crystal; DTA.
Data set [3] is described as follows: wn = mass fraction of the nth substance listed. Conditions: 101.3 kPa, Liquid, Pycnometric method.

In the case of `Cc1ccc2c(c1)C(=O)OC2=O` [4-methylphthalic anhydride], the “Molar enthalpy of transition or fusion” value in data set [1] is 4.5 ± 0.263 kcal/mol. The Normal melting temperature in data set [2] stood at 88.2 ± 2 °C.
On to `Cc1ccc2c(c1)C(=O)OC2=O` [4-methylphthalic anhydride] + CCOC(C)=O, for which the mass density in data set [3] (288.15 K, w1 = 0.2202) amounted to 933 ± 18 kg/m3; in data set [3] (298.15 K, w1 = 0.2878) it was 948 ± 18 kg/m3; in data set [3] (308.15 K, w1 = 0.3605), 964 ± 19 kg/m3.
`O=Cc1ccc2ccccc2c1` [β-naphthaldehyde] + CCOC(C)=O: the mass density in data set [3] (288.15 K, w1 = 0.2851) is 944 ± 18 kg/m3; in data set [3] (298.15 K, w1 = 0.3937) it was 957 ± 19 kg/m3; in data set [3] (308.15 K, w1 = 0.5686) it was 975 ± 18 kg/m3.
